In patent publication US20220033397A1, “PHARMACEUTICAL COMPOUNDS AND THEIR USE AS INHIBITORS OF UBIQUITIN SPECIFIC PROTEASE 19 (USP19)” (ALMAC DISCOVERY LIMITED, priority 2018, published 2022) one finds IC50 data, which are given here for 23 molecules.

By IC50 is commonly meant the concentration needed to halve the response being measured.

For the assay, the target named is T1, Full-length USP19 (Homo sapiens, UniProt O94966).
T1 construct: Full-length USP19 was purchased from Boston Biochem (E-576); purchased Boston Biochem E-576
T1 sequence (O94966 1-1318): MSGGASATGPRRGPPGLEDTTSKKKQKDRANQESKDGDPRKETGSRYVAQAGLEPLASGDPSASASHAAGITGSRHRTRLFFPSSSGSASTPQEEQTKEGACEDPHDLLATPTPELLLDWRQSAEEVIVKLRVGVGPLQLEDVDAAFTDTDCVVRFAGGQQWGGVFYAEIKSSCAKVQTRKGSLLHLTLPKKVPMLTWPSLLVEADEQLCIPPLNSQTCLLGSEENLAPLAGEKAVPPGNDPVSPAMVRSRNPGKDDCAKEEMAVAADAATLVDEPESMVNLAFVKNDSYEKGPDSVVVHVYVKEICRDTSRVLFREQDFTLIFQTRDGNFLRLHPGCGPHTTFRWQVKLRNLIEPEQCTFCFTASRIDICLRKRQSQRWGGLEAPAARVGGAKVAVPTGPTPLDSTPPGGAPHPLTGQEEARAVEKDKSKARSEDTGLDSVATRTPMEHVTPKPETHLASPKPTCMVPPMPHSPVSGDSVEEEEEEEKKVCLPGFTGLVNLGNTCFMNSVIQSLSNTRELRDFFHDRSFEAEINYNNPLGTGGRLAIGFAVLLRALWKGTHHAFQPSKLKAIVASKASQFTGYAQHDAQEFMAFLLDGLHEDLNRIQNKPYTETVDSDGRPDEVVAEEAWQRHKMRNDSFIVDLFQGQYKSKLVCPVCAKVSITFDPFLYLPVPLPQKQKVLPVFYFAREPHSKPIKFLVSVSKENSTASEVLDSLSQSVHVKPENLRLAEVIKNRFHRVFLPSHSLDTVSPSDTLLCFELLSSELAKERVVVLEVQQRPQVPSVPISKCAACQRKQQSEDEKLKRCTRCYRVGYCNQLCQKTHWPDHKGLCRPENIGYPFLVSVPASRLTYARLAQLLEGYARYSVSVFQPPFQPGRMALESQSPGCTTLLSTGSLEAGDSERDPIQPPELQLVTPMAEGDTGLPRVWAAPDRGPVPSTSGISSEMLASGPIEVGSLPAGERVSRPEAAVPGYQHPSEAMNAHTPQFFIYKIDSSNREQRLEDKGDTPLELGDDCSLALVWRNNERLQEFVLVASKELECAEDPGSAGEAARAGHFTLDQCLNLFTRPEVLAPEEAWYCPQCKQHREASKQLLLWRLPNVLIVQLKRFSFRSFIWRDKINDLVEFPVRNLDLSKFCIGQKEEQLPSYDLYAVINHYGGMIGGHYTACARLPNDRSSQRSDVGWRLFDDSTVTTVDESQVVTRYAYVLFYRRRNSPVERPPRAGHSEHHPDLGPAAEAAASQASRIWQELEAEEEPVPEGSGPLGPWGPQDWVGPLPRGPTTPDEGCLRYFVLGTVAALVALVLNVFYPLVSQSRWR
Briefly: USP19 fluorescence polarisation (FP) homogeneous assay with Ubiquitin-Lys-TAMRA substrate. The format is biochemical. The note with it: 2.5 nM USP19, 30 min pre-incubation, average of at least two duplicate experiments. The protocol:
Unless otherwise stated, all other reagents were purchased from Sigma. Enzymatic reactions were conducted in black flat bottom polystyrene 384-well plates (Nunc) and 30 μL total volume. […] Inhibitors were stored as 10 mM DMSO stocks in an inert environment (low humidity, dark, low oxygen, room temperature) using the Storage Pod System and serial dilutions were prepared in buffer just prior to the assay (from 200 μM to 2 μM, 8-18 data point curve).
Following incubation at RT for 30 min, the enzymatic reactions were initiated by dispensing the Ub substrate (500 nM, 10 μL). FP was measured every 15 min over a period of 90 min (within the linear range of the assay) using a Synergy 4 plate reader (BioTek) exciting at 530 nm and measuring the amount of parallel and perpendicular light at 575 nm. The FP signal was subsequently normalised to the no compound control.
(Fluorescence polarisation rises when a labelled molecule tumbles more slowly, as on binding a larger partner.)

Consider `N=S1(=O)CCN(C(=O)N2CC[C@@](O)(Cn3cnc(-c4ccccc4)cc3=O)C3(CCCC3)C2)[C@H](c2cc(F)ccc2F)C1` (mixture of isomers) [Example 395], for which the IC50 was below 500 nM.
For `O=C(N1CC[C@@](O)(Cn2cnc(-c3ccccc3)cc2=O)C2(CCCC2)C1)N1CCNCC1c1cc(F)cc(F)c1` (mixture of isomers) [Example 380, 3-(((10S)-7-(2-(3,5-difluorophenyl)piper-azine-1-carbonyl)-10-hydroxy-7-azaspiro[4.5]decan-10-yl)methyl)-6-phenylpyrimidin-4(3H)-one], the IC50 was below 500 nM.
As to `C[C@H](CC1CCCCC1)C(=O)N1CCC(O)(Cn2ccncc2=O)C(C)(C)C1` (stereo partly drawn) [Example 1, 1-((1-((R)-3-Cyclohexyl-2-methylpropanoyl)-4-hydroxy-3,3-dimethylpiperidin-4-yl)methyl)pyrazin-2(1H)-one], the IC50 is 500 to 5000 nM.
With `C[C@H](CC1CCCCC1)C(=O)N1CCC(O)(Cn2cc(-c3ccccc3)ncc2=O)C(C)(C)C1` (stereo partly drawn) [Example 2, 1-((1-((R)-3-Cyclohexyl-2-methylpropanoyl)-4-hydroxy-3,3-dimethylpiperidin-4-yl)methyl)-5-phenylpyrazin-2(1H)-one], the IC50 fell in the range of 500 to 5000 nM.
In the case of `C[C@H](CC1CCCCC1)C(=O)N1CCC(O)(Cn2ccncc2=O)C2(CCCC2)C1` (stereo partly drawn) [Example 3, 1-((7-((R)-3-Cyclohexyl-2-methylpropanoyl)-10-hydroxy-7-azaspiro[4.5]decan-10-yl)methyl)pyrazin-2(1H)-one], the IC50 fell in the range of 500 to 5000 nM.
In the case of `C[C@H](CC1CCC1)C(=O)N1CCC(O)(Cn2ccncc2=O)C2(CCCC2)C1` (stereo partly drawn) [Example 4, 1-((7-((R)-3-Cyclobutyl-2-methylpropanoyl)-10-hydroxy-7-azaspiro[4.5]decan-10-yl)methyl) pyrazin-2(1H)-one], the IC50 lay within 500 to 5000 nM.
The value for `C[C@H](CC(F)(F)F)C(=O)N1CCC(O)(Cn2ccncc2=O)C2(CCCC2)C1` (stereo partly drawn) [Example 5, 1-((10-Hydroxy-7-((R)-4,4,4-trifluoro-2-methylbutanoyl)-7-azaspiro[4.5]decan-10-yl)methyl)pyrazin-2(1H)-one] was 5000 to 50000 nM; that for `C[C@H](CC1CCCCC1)C(=O)N1CCC(O)(Cn2cc(Cl)ncc2=O)C2(CCCC2)C1` (stereo partly drawn) [Example 6, 5-Chloro-1-((7-((R)-3-cyclohexyl-2-methylpropanoyl)-10-hydroxy-7-azaspiro[4.5]decan-10-yl)methyl)pyrazin-2(1H)-one] was below 500 nM.
For the molecule `C[C@H](CC1CCCCC1)C(=O)N1CCC(O)(Cn2cc(Br)ncc2=O)C2(CCCC2)C1` (stereo partly drawn) [Example 7, 5-Bromo-1-((7-((R)-3-cyclohexyl-2-methylpropanoyl)-10-hydroxy-7-azaspiro[4.5]decan-10-yl)methyl)pyrazin-2(1H)-one], the IC50 is below 500 nM.
On to `COC(=O)c1cn(CC2(O)CCN(C(=O)[C@H](C)CC3CCCCC3)CC23CCCC3)c(=O)cn1` (stereo partly drawn) [Example 8, Methyl 4-((7-((R)-3-cyclohexyl-2-methylpropanoyl)-10-hydroxy-7-azaspiro[4.5]decan-10-yl)methyl)-5-oxo-4,5-dihydropyrazine-2-carboxylate], for which the IC50 is below 500 nM.
In the case of `C[C@H](CC1CCCCC1)C(=O)N1CCC(O)(Cn2cc(C(=O)O)ncc2=O)C2(CCCC2)C1` (stereo partly drawn) [Example 9, 4-((7-((R)-3-Cyclohexyl-2-methylpropanoyl)-10-hydroxy-7-azaspiro[4.5]decan-10-yl)methyl)-5-oxo-4,5-dihydropyrazine-2-carboxylic acid] it was 500 to 5000 nM.
In the case of `C[C@H](CC1CCCCC1)C(=O)N1CCC(O)(Cn2cc(C(=O)N(C)C)ncc2=O)C2(CCCC2)C1` (stereo partly drawn) [Example 10, 4-((7-((R)-3-Cyclohexyl-2-methylpropanoyl)-10-hydroxy-7-azaspiro[4.5]decan-10-yl)methyl)-N,N-dimethyl-5-oxo-4,5-dihydropyrazine-2-carboxamide] it was below 500 nM; in that of `C[C@H](CC1CCCCC1)C(=O)N1CCC(O)(Cn2cc(C(=O)N3CCNCC3)ncc2=O)C2(CCCC2)C1` (stereo partly drawn) [Example 11, 1-((7-((R)-3-Cyclohexyl-2-methylpropanoyl)-10-hydroxy-7-azaspiro[4.5]decan-10-yl)methyl)-5-(piperazine-1-carbonyl)pyrazin-2(1H)-one], below 500 nM.
In the case of `C[C@H](CC1CCCCC1)C(=O)N1CCC(O)(Cn2cc(-c3cccnc3)ncc2=O)C(C)(C)C1` (stereo partly drawn) [Example 12, 1-((1-((R)-3-Cyclohexyl-2-methylpropanoyl)-4-hydroxy-3,3-dimethylpiperidin-4-yl)methyl)-5-(pyridin-3-yl)pyrazin-2(1H)-one] it was 500 to 5000 nM; in that of `C[C@H](CC1CCCCC1)C(=O)N1CCC(O)(Cn2cc(N3CCCC3=O)ncc2=O)C(C)(C)C1` (stereo partly drawn) [Example 13, 1-((1-((R)-3-Cyclohexyl-2-methylpropanoyl)-4-hydroxy-3,3-dimethylpiperidin-4-yl)methyl)-5-(2-oxopyrrolidin-1-yl)pyrazin-2(1H)-one], 500 to 5000 nM; in that of `C[C@H](CC1CCCCC1)C(=O)N1CCC(O)(Cn2cc(-c3ccncc3)ncc2=O)C(C)(C)C1` (stereo partly drawn) [Example 14, 1-((1-((R)-3-Cyclohexyl-2-methylpropanoyl)-4-hydroxy-3,3-dimethylpiperidin-4-yl)methyl)-5-(pyridin-4-yl)pyrazin-2(1H)-one], 500 to 5000 nM.
Consider `C[C@H](CC1CCCCC1)C(=O)N1CCC(O)(Cn2cc(-c3ccn[nH]3)ncc2=O)C(C)(C)C1` (stereo partly drawn) [Example 17, 1-((1-((R)-3-Cyclohexyl-2-methylpropanoyl)-4-hydroxy-3,3-dimethylpiperidin-4-yl)methyl)-5-(1H-pyrazol-5-yl)pyrazin-2(1H)-one], for which the IC50 lay in the range of 500 to 5000 nM.
`C[C@H](CC1CCCCC1)C(=O)N1CCC(O)(Cn2cc(-n3cccn3)ncc2=O)C(C)(C)C1` (stereo partly drawn) [Example 18, 1-((1-((R)-3-Cyclohexyl-2-methylpropanoyl)-4-hydroxy-3,3-dimethylpiperidin-4-yl)methyl)-5-(1H-pyrazol-1-yl)pyrazin-2(1H)-one]: the IC50 was in the range of 500 to 5000 nM.
In the case of `C[C@H](CC1CCCCC1)C(=O)N1CCC(O)(Cn2cc(-c3cccnc3)ncc2=O)C2(CCCC2)C1` (stereo partly drawn) [Example 19, 1-((7-((R)-3-Cyclohexyl-2-methylpropanoyl)-10-hydroxy-7-azaspiro[4.5]decan-10-yl)methyl)-5-(pyridin-3-yl)pyrazin-2(1H)-one] it was 500 to 5000 nM; in that of `C[C@H](CC1CCCCC1)C(=O)N1CCC(O)(Cn2cc(-c3ccncc3)ncc2=O)C2(CCCC2)C1` (stereo partly drawn) [Example 20, 1-((7-((R)-3-Cyclohexyl-2-methylpropanoyl)-10-hydroxy-7-azaspiro[4.5]decan-10-yl)methyl)-5-(pyridin-4-yl)pyrazin-2(1H)-one], 500 to 5000 nM.
Regarding `Cc1cn(CC2(O)CCN(C(=O)[C@H](C)CC3CCCCC3)CC2(C)C)c(=O)cn1` (stereo partly drawn) [Example 21, 1-((1-((R)-3-Cyclohexyl-2-methylpropanoyl)-4-hydroxy-3,3-dimethylpiperidin-4-yl)methyl)-5-methylpyrazin-2(1H)-one], the IC50 lay in the range of 5000 to 50000 nM.
In the case of `C[C@H](CC1CCCCC1)C(=O)N1CCC(O)(Cn2cc(C3CC3)ncc2=O)C(C)(C)C1` (stereo partly drawn) [Example 22, 1-((1-((R)-3-Cyclohexyl-2-methylpropanoyl)-4-hydroxy-3,3-dimethylpiperidin-4-yl)methyl)-5-cyclopropylpyrazin-2(1H)-one] it was 500 to 5000 nM.
In the case of `C[C@H](CC1CCCCC1)C(=O)N1CCC(O)(Cn2cc(-c3ccccn3)ncc2=O)C(C)(C)C1` (stereo partly drawn) [Example 23, 1-((1-((R)-3-Cyclohexyl-2-methylpropanoyl)-4-hydroxy-3,3-dimethylpiperidin-4-yl)methyl)-5-(pyridin-2-yl)pyrazin-2(1H)-one] it was 5000 to 50000 nM.
